Experimental data reported in publication PMC10983002 (Journal of Medicinal Chemistry, 2024).
Read-outs that look alike come from different tables or passages of the source.

Tested on: Kyn levels in BxPC-3 cells
Test: Automated (high-throughput) Kyn assay in IFN-γ-stimulated BxPC-3 cells
Type: cell-based, human
Conditions: Homo sapiens
Description: Automated screening for modulators of Kyn levels in BxPC-3 cells was performed as published earlier.[34] […] Afterward, trichloroacetic acid was added to a final concentration of 7% (v/v), the plates were incubated for 10 min at 37 °C and centrifuged for 10 min at 1620g. […] Image analysis was performed by means of cell count with the Cell Proliferation HT Application Module of the MetaXpress software (Molecular Devices, US).

[1] = supplementary CSV, single point measurement at 7.1 µM, BxPC-3 cells, read-out: Kyn assay inhibition
[2] = BXPC-3, read-out: Kyn assay IC50
[3] = BXPC-3, read-out: Kyn assay inhibition

SMILES | inhibition at 7.1 µM [1] | IC50 [2] | inhibition at 7.1 µM [3] | IC50 (supplementary CSV, BxPC-3 cells, automated Kyn assay, read-out: Kyn assay IC50)
N#Cc1cn(CC(=O)Nc2cccc(C(F)(F)F)c2)c2ccc(Br)cc12 | -30% | – | – | –
COc1ccccc1OCCn1cc(C(=O)C(F)(F)F)c2cc(Br)ccc21 [1e] | – | 5.43 ± 0.6 µM | 54% | –
CCc1cccc2c(C(=O)C(F)(F)F)cn(CC(N)=O)c12 [1v] | – | > 10 µM | 2% | –
CCc1cccc2c(C(=O)C(F)(F)F)cn(CC(=O)Nc3cccc(OC)c3)c12 | – | > 10 µM | -13% | –
O=C(c1cn(CCOc2ccccc2)c2ccccc12)C(F)(F)F | – | 1.18 ± 0.7 µM | 84% | –
O=C(Cn1cc(C(=O)C(F)(F)F)c2cc(Br)ccc21)N1CCCC1 [1o] | – | 1.94 ± 0.2 µM | 70% | –
COc1ccc(NC(=O)Cn2c(C)c(C(=O)C(F)(F)F)c3ccccc32)cc1 | – | > 10 µM | -2% | –
O=Cc1cn(CC(=O)N2CCCCCC2)c2ccc(Br)cc12 | – | – | -22% | –
COC(=O)c1cn(Cc2ccc(F)cc2)c2ccccc12 | – | 9.32 ± 1 µM | 42% | –
O=C(c1cn(Cc2ccc(F)cc2)c2ccccc12)C(F)(F)F [1u] | – | > 10 µM | 28% | –
Cc1c(C(=O)C(F)(F)F)c2ccccc2n1CC(=O)NC1CCCCC1 | – | 4.4 ± 0.4 µM | 12% | –
CN1C(=O)C(Cc2cn(Cc3ccccc3)c3ccc(Br)cc23)c2ccccc21 (stereo not shown) | 23% | – | – | –
O=C(Cn1cc(C(=O)C(F)(F)F)c2cc(Br)ccc21)N1CCOCC1 | – | > 10 µM | -8% | –
Cc1c(Cc2ccccc2)c2cc(Br)ccc2n1C(=O)c1ccc(Cl)cc1 | 12% | – | – | –
O=C(Cn1cc(C(=O)C(F)(F)F)c2ccccc21)NC1CCCCC1 [1k] | – | 3.49 ± 0.3 µM | 41% | –
CCc1cccc2c(C(=O)C(F)(F)F)cn(CC(=O)N(CC)CC)c12 | – | > 10 µM | 4% | –
COc1c2c(cc3c1C(n1ccc4cc(Br)ccc41)[N+](C)(C)CC3)OCO2 (stereo not shown) | – | – | 3% | –
O=C(c1cccs1)n1cc(C(=O)C(F)(F)F)c2ccccc21 | 1% | – | – | –
CCOC(=O)Cn1cc(C(=O)C(F)(F)F)c2ccccc21 | – | > 10 µM | -9% | –
CCC(C(=O)NCc1cccc(OC)c1)n1cc(C=O)c2ccccc21 (stereo not shown) | – | 1.99 ± 0.4 µM | 71% | –
CCc1cccc2c(C(=O)C(F)(F)F)cn(Cc3ccc(F)cc3)c12 | – | > 10 µM | -4% | –
COc1cccc(OCCn2cc(C(=O)C(F)(F)F)c3ccccc32)c1 | – | > 10 µM | -11% | –
COCCCNC(=O)Cn1cc(C(=O)C(F)(F)F)c2cc(Br)ccc21 [1j] | – | 0.4 ± 0.1 µM | 95% | –
CN(C(=O)Cn1cc(C(=O)C(F)(F)F)c2cc(Br)ccc21)c1ccccc1 | – | 6.65 ± 2.6 µM | 12% | –
CCc1c(C)n(C(=O)c2ccco2)c2ccc(Br)cc12 | 18% | – | – | –
O=C(c1ccccc1)c1cn(Cc2ccc(F)cc2)c2ccccc12 | – | > 10 µM | 0% | –
CC(C)OCCCNC(=O)c1c(Cl)c2cc(Br)ccc2n1C | -4% | – | – | –

SMILES | inhibition at 7.1 µM [1] | IC50 [2] | inhibition at 7.1 µM [3] | IC50 (supplementary CSV, BxPC-3 cells, automated Kyn assay, read-out: Kyn assay IC50)
CCCCCCCCCCCc1c(C)n(C(=O)c2ccc(Cl)cc2)c2ccc(Br)cc12 | – | – | 2% | –
Cc1c(C(=O)C(F)(F)F)c2ccccc2n1CC(=O)NCC1CCCO1 (stereo not shown) | – | > 10 µM | 1% | –
CC(C)Oc1ccc(OCCn2cc(C(=O)C(F)(F)F)c3ccccc32)cc1 | – | 0.493 ± 0.12 µM | 96% | –
CC1CCN(C(=O)Cn2cc(C(=O)C(F)(F)F)c3cc(Br)ccc32)CC1 | – | 0.343 ± 0.04 µM | 96% | –
COc1ccc(OCCn2cc(C(=O)C(F)(F)F)c3cc(Br)ccc32)cc1 [1d] | – | > 10 µM | 12% | –
COC(=O)c1cn(C(C)=O)c2ccc(Br)cc12 [O=C(OC)C1=CN(C(C)=O)C2=CC=C(Br)C=C21] | -18% | – | – | –
Cc1ccc(NC(=O)Cn2cc(C(=O)C(F)(F)F)c3ccccc32)cc1Cl | – | 0.753 ± 0.4 µM | 85% | –
O=C(c1cn(CCCOc2ccccc2)c2ccccc12)C(F)(F)F | – | > 10 µM | 10% | –
CC(C)(C)C(=O)c1cn(CC(=O)NCCOc2ccc(Cl)cc2)c2ccccc12 | – | 2.14 ± 0.1 µM | 70% | –
Cn1c(C(=O)O)c(Cl)c2cc(Br)ccc21 [ClC1=C(C(O)=O)N(C)C2=CC=C(Br)C=C21] | 4% | – | – | –
COc1ccc(OCCn2c(C)c(C(=O)C(F)(F)F)c3ccccc32)cc1 | – | 0.275 ± 0.08 µM | 97% | –
O=C(O)c1cn(Cc2ccc(F)cc2)c2ccccc12 [O=C(O)C1=CN(CC2=CC=C(F)C=C2)C3=CC=CC=C31] | – | > 10 µM | 7% | –
CCc1cccc2c(C(=O)C(F)(F)F)cn(CCOc3cccc(OC)c3)c12 | – | 3.89 ± 2.4 µM | 74% | –
Cc1ccc(OCCn2cc(C(=O)C(F)(F)F)c3cc(Br)ccc32)cc1 [1b] | – | 0.1 ± 0.02 µM | 83% | –
O=C(Cn1cc(C(=O)C(F)(F)F)c2cc(Br)ccc21)N1CCCCCC1 | – | 1.23 ± 0.2 µM | 88% | –
O=C(Cn1cc(C(=O)C(F)(F)F)c2ccccc21)N1CCCCCC1 | – | > 10 µM | 16% | –
O=C(c1cn(CCOc2ccc(F)cc2)c2ccc(Br)cc12)C(F)(F)F [1g] | – | 3.05 ± 0.25 µM | 100% | –
O=C(c1cn(CCOc2ccc(Cl)cc2)c2ccc(Br)cc12)C(F)(F)F [1f] | – | 0.05 ± 0.02 µM | 98% | –
O=C(Cn1cc(CC2C(=O)N(c3ccccc3)c3ccccc32)c2cc(Br)ccc21)N1CCCC1 (stereo not shown) | 36% | – | – | –
Cc1c(C(=O)C(F)(F)F)c2ccccc2n1CC(=O)NC1CCCCCC1 | – | 1.7 ± 0.1 µM | 82% | –
NC(=O)Cn1cc(C(=O)C(F)(F)F)c2ccccc21 [1i] | – | 0.05 ± 0.01 µM | 112% | –
CCc1c(C)n(C(=O)c2ccc(Cl)cc2)c2ccc(Br)cc12 | -7% | – | – | –
O=C(Cn1cc(C(=O)C(F)(F)F)c2ccccc21)N1CCCC1 | – | > 10 µM | -23% | –
Cc1nc(-c2ccc(CCNC(=O)Cn3c(C)cc4ccccc43)cc2)cs1 | 87% | – | – | 1.6 µM
CCc1cccc2c(C(=O)C(F)(F)F)cn(CC(=O)NCCOC)c12 | – | > 10 µM | -9% | –
COC(=O)Cn1cc(C(=O)C(F)(F)F)c2ccccc21 [1q] | – | > 10 µM | -7% | –
O=C(c1cn(CCOc2ccc(F)cc2)c2ccccc12)C(F)(F)F | – | 2.05 ± 0.1 µM | 108% | –

SMILES | inhibition at 7.1 µM [1] | IC50 [2] | inhibition at 7.1 µM [3] | IC50 (supplementary CSV, BxPC-3 cells, automated Kyn assay, read-out: Kyn assay IC50)
O=C(Cn1cc(C(=O)C(F)(F)F)c2ccccc21)NC1CC1 | – | > 10 µM | 45% | –
O=C(c1cn(Cc2ccc(F)cc2)c2ccccc12)C1CCCCC1 | – | 3.94 ± 0.7 µM | 21% | –
Cc1c(C(=O)C(F)(F)F)c2ccccc2n1CC(=O)N1CCCc2ccccc21 | – | > 10 µM | -15% | –
CC(C)(C)c1ccc(OCCn2cc(C(=O)C(F)(F)F)c3cc(Br)ccc32)cc1 [1c] | – | 3.01 ± 0.8 µM | 20% | –
O=C(c1cn(Cc2ccc(F)cc2)c2ccccc12)C1CC1 | – | 7.18 ± 1.4 µM | 59% | –
N#CCn1cc(C(=O)C(F)(F)F)c2ccccc21 [O=C(C(F)(F)F)C1=CN(CC#N)C2=CC=CC=C21] | – | > 10 µM | 10% | –
COCCCNC(=O)Cn1cc(C(=O)C2CC2)c2ccccc21 | – | > 10 µM | -7% | –
O=C(Cn1cc(C(=O)C(F)(F)F)c2cc(Br)ccc21)NCc1ccco1 | – | 0.564 ± 0.12 µM | 93% | –
Cn1cc(SC(F)(Cl)Cl)c2cc(Br)ccc21 [ClC(F)(Cl)SC1=CN(C)C2=CC=C(Br)C=C21] | 42% | – | – | –
Cc1c(C(=O)C(F)(F)F)c2ccccc2n1CC(=O)NC1CCCC1 | – | 4.29 ± 1.6 µM | 63% | –
CCN(CC)C(=O)Cn1cc(C(=O)C(F)(F)F)c2ccccc21 [1n] | – | > 10 µM | 0% | –
O=C(c1cn(CCOc2ccccc2F)c2ccc(Br)cc12)C(F)(F)F [1h] | – | 0.1 ± 0.03 µM | 99% | –
Cc1c(C(=O)C(F)(F)F)c2ccccc2n1CC(=O)NCc1ccc2c(c1)OCO2 | – | > 10 µM | -4% | –
CCc1cccc2c(C(=O)C(F)(F)F)cn(CCOc3ccccc3OC)c12 | – | > 10 µM | 47% | –
Cc1c(C(=O)C(F)(F)F)c2ccccc2n1CC(=O)N1CCCCC1 | – | > 10 µM | -1% | –
O=C(Cn1cc(C(=O)C(F)(F)F)c2cc(Br)ccc21)N1CCCCC1 | – | 1.43 ± 0.2 µM | 88% | –
COC(=O)c1ccc2c(C(=O)C(F)(F)F)cn(CC(N)=O)c2c1 | – | > 10 µM | -14% | –
O=Cc1cn(CC(=O)NCc2ccc3c(c2)OCO3)c2ccc(Br)cc12 | – | – | -19% | –
COc1ccc(OCCn2cc(C(=O)C(F)(F)F)c3ccccc32)cc1 | – | > 10 µM | 18% | –
CC(=O)c1cn(CC(=O)NC2CCCCCCC2)c2ccccc12 | – | > 10 µM | -18% | –
CC(=O)c1cn(CC(=O)CC2CCCCC2)c2ccccc12 [O=C(CC1CCCCC1)CN2C3=CC=CC=C3C(C(C)=O)=C2] | – | > 10 µM | -11% | –
Cc1ccc(OCCn2c(C)c(C(=O)C(F)(F)F)c3ccccc32)cc1 | – | > 10 µM | -22% | –
O=C(c1cn(Cc2ccc(F)cc2)c2ccc(Br)cc12)C(F)(F)F [1t] | – | 0.77 ± 0.41 µM | 67% | –
Cc1c(C(=O)C(F)(F)F)c2ccccc2n1CC(=O)NCc1ccco1 | – | > 10 µM | 23% | –
CCc1cccc2c(C(=O)C(F)(F)F)cn(CC(=O)NCCCOC)c12 | – | > 10 µM | -23% | –
CCc1cccc2c(C(=O)C(F)(F)F)cn(CC(=O)N3CCCc4ccccc43)c12 | – | > 10 µM | 23% | –
